Assay results reported in patent US12398092B2, “Method for inhibiting or disrupting biofilm formation, or reducing biofilm” (RAMOT AT TEL-AVIV UNIVERSITY LTD., priority 2015, dated 2025).

Columns and labels:
Type in all cases: cell-based
E. faecalis ATCC 29212 = assay: Biofilm inhibition, crystal violet staining (MBIC50); details: double-dilution method; Table 1; read-out: MBIC50, strain D
Protocol: (§1) Analysis of biofilm inhibition. The assay was performed as previously described (Joseph et al., 2016; Feldman et al., 2012) with minor modifications. […] Next, 100 μL of serial 1:2 dilutions of compounds in TSB+1% glucose (32, 16, 8, 4, 2, 1, and 0.5 μg/mL) were prepared in flat-bottomed 96-well microplates (Costar, Corning). Control wells with no compounds and wells without bacteria containing each tested concentration of the compounds (blanks) were also prepared. An equal volume (100 μL) of bacterial suspensions diluted 1:100 (OD600=0.01) or 1:10 (OD600=0.1) in TSB+1% glucose was added to each well. […] The wells were vigorously rinsed at least four times with doubly distilled water (DDW). Next, 0.4% crystal violet (200 μL) was added to each well. After 45 min, wells were vigorously rinsed three times with DDW to remove unbound dye. After adding 200 μL of 30% acetic acid to each well, the plate was shaken for 15 min to release the dye. Biofilm formation was quantified by measuring the difference between absorbance of untreated and treated bacterial samples for each tested concentration of the compounds and the absorbance of appropriate blank well at 600 nm (A600) using Tecan plate reader. The MBIC50 was defined as the lowest concentration at which at least 50% reduction in biofilm formation was measured compared to untreated cells. Each concentration of compound was tested in five replicates, and three to six independent experiments were performed.

S. aureus ATCC 29213 = assay: as above; details: double-dilution method; Table 1; read-out: MBIC50, strain B
Protocol: as §1

S. aureus BAA/043 = assay: as above; details: double-dilution method; Table 1; read-out: MBIC50, strain C
Protocol: as §1

[1] = test system: S. aureus subsp. aureus Rosenbach ATCC 33592 (MRSA); assay: as above; details: double-dilution method; Table 1; read-out: MBIC50, strain A
Protocol: as §1

S. epidermidis RP62A = assay: as above; details: double-dilution method; Table 1; read-out: MBIC50, strain E
Protocol: as §1

S. mutans ATCC 700610 = assay: as above; details: double-dilution method; Table 1; read-out: MBIC50, strain F
Protocol: as §1

[2] = test system: tested biofilm-forming Gram-positive pathogens; assay: Biofilm inhibition, statements over all tested strains; details: highest concentration tested
Protocol: as §1, with “Each concentration of compound was tested in five replicates, and three to six independent experiments were performed.” left out

mature biofilms = assay: Biofilm eradication; details: mature 24-h-old biofilms
Protocol: Analysis of biofilm eradication. Biofilm eradication activity of the tested compounds determined against mature 24-h-old biofilms was performed as previously described (Pompilio et al., 2015). […] Untreated biofilm samples were used as control. Biofilms were quantified by measuring the absorbance at 600 nm. […] Concentrations were tested in five replicates, and three independent experiments were performed.

Row | Molecule | IC50 (E. faecalis ATCC 29212) [µM] | IC50 (S. aureus ATCC 29213) [µM] | IC50 (S. aureus BAA/043) [µM] | IC50 [1] [µM] | IC50 (S. epidermidis RP62A) [µM] | IC50 (S. mutans ATCC 700610) [µM] | Biofilm formation: no inhibition up to (concentration) [2] [µM] | Eradication of mature biofilms (mature biofilms)
1 | C[N+](C)(C)C.[Br-] [TMA—Br, tetramethylammonium bromide] | > 208 | > 208 | > 208 | > 208 | > 208 | > 208 | > 292 | –
2 | C[N+](C)(C)C.[Cl-] [TMA—Cl, tetramethylammonium chloride] | > 292 | > 292 | > 292 | > 292 | > 292 | > 292 | > 208 | –
3 | deca-N-methyl-imidazolium pillar[5]arene [Compound 22] | 0.4 | 1.6 | 1.6 | 0.8 | 3.2 | 6.4 | – | –
4 | deca-trimethylammonium pillar[5]arene [Compound 21] | 0.9 | 3.5 | 3.5 | 0.9 | 3.5 | 1.8 | – | did not eradicate mature biofilms
